Results reported in patent US8461150B2, “Chalcone linked pyrrolo[2,1-c][1, 4]benzodiazepine hybrids as potential anticancer agents and process for the preparation thereof” (Council of Scientific & Industrial Research, priority 2008, dated 2013).

Experiments:
[1] = system: duplex-form calf thymus DNA (CT-DNA); test: Thermal denaturation studies with calf thymus DNA; format: binding; settings: [PBD]:[DNA] molar ratio 1:5, CT-DNA 100 μM, ligand 20 μM, pH 7.00; for ΔTμ (° C.) after incubation at 37 °C. for 0 h: 0 h incubation; for ΔTμ (° C.) after incubation at 37 °C. for 18 h: 18 h incubation
Procedure: These compounds have also been subjected to thermal denaturation studies with duplex-form calf thymus DNA (CT-DNA) using an modification of a reported procedure. Working solutions in aqueous buffer (10 mM NaH2PO4/Na2HPO4, 1 mM Na2EDTA, pH 7.00+0.01) containing CT-DNA (100 μm in phosphate) and the PBD (20 μm) have been prepared by addition of concentrated PBD solutions in DMSO to obtain a fixed [PBD]/[DNA] molar ratio of 1:5. The DNA-PBD solutions have been incubated at 37° C. for 0 and 18 h prior to analysis. Samples have been monitored at 260 nm using a Beckman DU-800 spectrophotometer fitted with high performance temperature controller, and heated at 1° C. min^−1 in the 40-110° C. range. DNA helix→coil transition temperatures (Tm) have been obtained from the maxima in the d(A260)/d T derivative plots. Drug-induced alterations in DNA melting behavior are given by: ΔTm=Tm(DNA+PBD)−Tm(DNA alone), where the Tm value for the PBD-free CT-DNA is 68.5±0.01.

Breast cancer cell lines = test: NCI in vitro anticancer screen, SRB assay, 48 h, panel average; format: cell-based, human; settings: average of six to eight cell lines, 48 h exposure
Procedure: (§1) Biological Activity: The in vitro cell line studies were carried out at the National Cancer Institute, Maryland, USA.
(§2) Cytotoxicity: • The compounds 6b) 7-Methoxy-8-{4-[1-(4-fluorophenyl)-3-(4-hydroxy-3-methoxyphenyl)-2-propen-1-one]butyl}-oxy-(11aS)-1,2,3,11a-5H-pyrrolo[2,1-c][1,4]benzodiazepin-5-one; • (6c) 7-Methoxy-8-{5-[1-(4-fluorophenyl)-3-(4-hydroxy-3-methoxyphenyl)-2-propen-1-one]pentyl}-oxy-(11aS)-1,2,3,11a-5H-pyrrolo[2,1-c][1,4]benzodiazepin-5-one; • (6g) 7-Methoxy-8-{3-[1-(2-hydroxyphenyl)-3-(4-hydroxy-3-methoxyphenyl)-2-propen-1-one]propyl}-oxy-(11aS)-1,2,3,11a-5H-pyrrolo[2,1-c][1,4]benzodiazepin-5-one; • (10a) 7-Methoxy-8-{3-[3-(4-hydroxy-3-methoxyphenyl)-1-(2,4-dimethyl-3-quinolyl)-2-propen-1-one]propyl}-oxy-(11aS)-1,2,3,11a-5H-pyrrolo[2,1-c][1,4]benzodiazepin-5-one • (10b) 7-Methoxy-8-{4-[3-(4-hydroxy-3-methoxyphenyl)-1-(2,4-dimethyl-3-quinolyl)-2-propen-1-one]butyl}-oxy-(11aS)-1,2,3,11a-5H-pyrrolo[2,1-c][1,4]benzodiazepin-5-one; were evaluated for in vitro anticancer activity against […] derived from […] (leukemia, ovarian, renal, melanoma, CNS, colon, prostate, lung, cervix and breast cancer) as shown in (Table 1, 2 and 3)
(§3) 6b, 6c, 6g, 10a and 10b were evaluated for in vitro anticancer activity against sixty human tumour cells derived from nine cancer types (leukemia, non-small-cell lung, colon, CNS, melanoma, ovarian, prostate, renal and breast cancer) as shown in (Table 1 and 2). For the compound, dose response curves for each cell line were measured at a minimum of five concentrations at 10 fold dilutions. A protocol of 48 h continuous drug exposure was used and a sulforhodamine B (SRB) protein assay was used to estimate cell viability or growth. The concentration causing 50% cell growth inhibition (GI50), total cell growth inhibition (TGI 0% growth) and 50% cell death (LC50, −50% growth) compared with the control was calculated.
(§4) Each cancer type represents the average of six to eight different cancer cell lines.

CNS cancer cell lines = test: as above; format: cell-based, human; settings: average of six to eight cell lines, 48 h exposure
Procedure: as §1, §2, §3, §4

Colon cancer cell lines = test: as above; format: cell-based, human; settings: average of six to eight cell lines, 48 h exposure
Procedure: as §1, §2, §3, §4

[2] = system: Leukemia cancer cell lines; test: as above; format: cell-based, human; settings: average of six to eight cell lines, 48 h exposure
Procedure: as §1, §2, §3, §4

[3] = system: Melanoma cancer cell lines; test: as above; format: cell-based, human; settings: average of six to eight cell lines, 48 h exposure
Procedure: as §1, §2, §3, §4

[4] = system: Non-small cell lung cancer cell lines; test: as above; format: cell-based, human; settings: average of six to eight cell lines, 48 h exposure
Procedure: as §1, §2, §3, §4

[5] = system: Ovarian cancer cell lines; test: as above; format: cell-based, human; settings: average of six to eight cell lines, 48 h exposure
Procedure: as §1, §2, §3, §4

[6] = system: Prostate cancer cell lines; test: as above; format: cell-based, human; settings: average of six to eight cell lines, 48 h exposure
Procedure: as §1, §2, §3, §4

Renal cancer cell lines = test: as above; format: cell-based, human; settings: average of six to eight cell lines, 48 h exposure
Procedure: as §1, §2, §3, §4

human tumour cell lines = test: In vitro cytotoxicity, mean graph midpoints (MG_MID) over human tumour cell lines; format: cell-based; settings: human tumour cell lines, 48 h exposure, SRB
Procedure: as §1, §3

786-0 (Renal) = test: Cytotoxicity in selected cancer cell lines (SRB, 48 h); format: cell-based, human
Procedure: as §1, §3
(§5) Each cancer type represents the average of six to nine different cancer cell lines. In vitro evaluation of cytotoxic activity. The compound 6b, 6c, 6g 10a and 10b were evaluated for in vitro anticancer activity against nine human tumour cells derived from six cancer types (leukemia, colon, prostate, melanoma, ovarian, lung, cervix and breast cancer) as shown in Table 3. […] Compounds 6b, 6c, 6g, 10a and 10b have been evaluated for their in vitro cytotoxicity in selected human cancer cell lines of colon (Colo205), lung (NCI-H522, NCI-H226), colon (colo-205), prostate (DU145, PC3), ovarian (IGROV1, HT1080), and breast (MDA-MB-435, Zr-75-1), melanoma (LOXMIVI, VACC-62, SK-MEL-5) origin. A protocol of 48 h continuous drug exposure has been used and an […] has been used to estimate cell viability or growth. The results are expressed as percent of cell growth determined relative to that of untreated control cells

A498 (Renal) = test: as above; format: cell-based, human
Procedure: as §1, §3, §5

ACHN (Renal) = test: as above; format: cell-based, human
Procedure: as §1, §3, §5

CAKI-1 (Renal) = test: as above; format: cell-based, human
Procedure: as §1, §3, §5

CCRF-CEM (Leukemia) = test: as above; format: cell-based, human
Procedure: as §1, §3, §5

HCT-116 (Colon) = test: as above; format: cell-based, human
Procedure: as §1, §3, §5

HCT-15 (Colon) = test: as above; format: cell-based, human
Procedure: as §1, §3, §5

HL-60(TB) (Leukemia) = test: as above; format: cell-based, human
Procedure: as §1, §3, §5

LOX IMVI (Melanoma) = test: as above; format: cell-based, human
Procedure: as §1, §3, §5

M14 (Melanoma) = test: as above; format: cell-based, human
Procedure: as §1, §3, §5

MALME-3M (Melanoma) = test: as above; format: cell-based, human
Procedure: as §1, §3, §5

MDA-MB-231/ATCC (Breast) = test: as above; format: cell-based, human
Procedure: as §1, §3, §5

[7] = system: NCI-H226 (Non-small cell lung); test: as above; format: cell-based, human
Procedure: as §1, §3, §5

[8] = system: NCI-H23 (Non-small cell lung); test: as above; format: cell-based, human
Procedure: as §1, §3, §5

[9] = system: NCI-H522 (Non-small cell lung); test: as above; format: cell-based, human
Procedure: as §1, §3, §5

NCI/ADR-RES (Breast) = test: as above; format: cell-based, human
Procedure: as §1, §3, §5

OVCAR-3 (Ovarian) = test: as above; format: cell-based, human
Procedure: as §1, §3, §5

RPMI-8226 (Leukemia) = test: as above; format: cell-based, human
Procedure: as §1, §3, §5

SF-539 (CNS) = test: as above; format: cell-based, human
Procedure: as §1, §3, §5

SK-MEL-5 (Melanoma) = test: as above; format: cell-based, human
Procedure: as §1, §3, §5

SW-620 (Colon) = test: as above; format: cell-based, human
Procedure: as §1, §3, §5

TK-10 (Renal) = test: as above; format: cell-based, human
Procedure: as §1, §3, §5

U251 (CNS) = test: as above; format: cell-based, human
Procedure: as §1, §3, §5

UACC-257 (Melanoma) = test: as above; format: cell-based, human
Procedure: as §1, §3, §5

UACC-62 (Melanoma) = test: as above; format: cell-based, human
Procedure: as §1, §3, §5

UO-31 (Renal) = test: as above; format: cell-based, human
Procedure: as §1, §3, §5

What does the source list for COc1cc(C=CC(=O)c2ccc(F)cc2)ccc1OCCCOc1cc2c(cc1OC)C(=O)N1CCC[C@H]1C=N2 [6a, 7-Methoxy-8-{3-[1-(4-fluorophenyl)-3-(4-hydroxy-3-methoxyphenyl)-2-propen-1-one]propyl}-oxy-(11aS)-1,2,3,11a-5H-pyrrolo[2,1-c][1,4]benzodiazepin-5-one]?
ΔTμ (° C.) after incubation at 37 °C. for 0 h [1]: 1.7 °C; ΔTμ (° C.) after incubation at 37 °C. for 18 h [1]: 2.4 °C

Which results are given for COc1cc(C=CC(=O)c2ccccc2O)ccc1OCCCOc1cc2c(cc1OC)C(=O)N1CCC[C@H]1C=N2 [6d, 7-Methoxy-8-{3-[1-(2-hydroxyphenyl)-3-(4-hydroxy-3-methoxyphenyl)-2-propen-1-one]propyl}-oxy-(11aS)-1,2,3,11a-5H-pyrrolo[2,1-c][1,4]benzodiazepin-5-one]?
ΔTμ (° C.) after incubation at 37 °C. for 0 h [1]: 2.1 °C; ΔTμ (° C.) after incubation at 37 °C. for 18 h [1]: 2.6 °C

For COc1cc(/C=C/C(=O)c2ccc(O)cc2)ccc1OCCCOc1cc2c(cc1OC)C(=O)N1CCC[C@H]1C=N2 [6g, 7-Methoxy-8-{3-[1-(4-hydroxyphenyl)-3-(4-hydroxy-3-methoxyphenyl)-2-propen-1-one]propyl}-oxy-(11aS)-1,2,3,11a-5H-pyrrolo[2,1-c][1,4]benzodiazepin-5-one], which “Log GI50 (concentration in mol/L causing 50% growth inhibition)” value (Breast cancer cell lines) is on record?
The value was −6.57 mol/L.

What about the “Log GI50 (concentration in mol/L causing 50% growth inhibition)” value (CNS cancer cell lines) of the same molecule?
The value was −5.62 mol/L.

And the “Log GI50 (concentration in mol/L causing 50% growth inhibition)” value (Colon cancer cell lines)?
The value was −5.85 mol/L.

What about the “Log GI50 (concentration in mol/L causing 50% growth inhibition)” value [2] of the same molecule?
The value was −5.62 mol/L.

What about the “Log GI50 (concentration in mol/L causing 50% growth inhibition)” value [3] of the same molecule?
Its value is −5.65 mol/L.

What about the “Log GI50 (concentration in mol/L causing 50% growth inhibition)” value [4] of the same molecule?
The value was −5.82 mol/L.

What about the “Log GI50 (concentration in mol/L causing 50% growth inhibition)” value [5] of the same molecule?
The value was −5.56 mol/L.

And the “Log GI50 (concentration in mol/L causing 50% growth inhibition)” value [6]?
Its value is −4.63 mol/L.

And the “Log GI50 (concentration in mol/L causing 50% growth inhibition)” value (Renal cancer cell lines)?
Its value is −5.67 mol/L.

And the “Log10LC50 mean graph midpoint (MG_MID)” value (human tumour cell lines; 50% cell death)?
Its value is −4.58.

What about the “Log10GI50 mean graph midpoint (MG_MID)” value (human tumour cell lines) of the same molecule?
Its value is −5.78.

And the “Log10TGI mean graph midpoint (MG_MID)” value (human tumour cell lines; total cell growth inhibition)?
The value was −5.86.

What about the GI50 (786-0 (Renal)) of the same molecule?
The GI50 was 24.9 µM.

What about the GI50 (A498 (Renal)) of the same molecule?
The GI50 was 29 µM.

And the GI50 (ACHN (Renal))?
Its GI50 is 46.1 µM.

And the GI50 (CAKI-1 (Renal))?
Its GI50 is 22.9 µM.

And the GI50 (CCRF-CEM (Leukemia))?
Its GI50 is 37.4 µM.

What about the GI50 (HCT-116 (Colon)) of the same molecule?
The GI50 was 14.6 µM.

What about the GI50 (HCT-15 (Colon)) of the same molecule?
Its GI50 is 18.4 µM.

What about the GI50 (HL-60(TB) (Leukemia)) of the same molecule?
Its GI50 is 49.5 µM.

What about the GI50 (LOX IMVI (Melanoma)) of the same molecule?
The GI50 was 15 µM.

What about the GI50 (M14 (Melanoma)) of the same molecule?
Its GI50 is 18.8 µM.

What about the GI50 (MALME-3M (Melanoma)) of the same molecule?
The GI50 was 36.2 µM.

And the GI50 (MDA-MB-231/ATCC (Breast))?
The GI50 was 14.2 µM.

What about the GI50 [7] of the same molecule?
The GI50 was 28.4 µM.

What about the GI50 [8] of the same molecule?
Its GI50 is 22.5 µM.

What about the GI50 [9] of the same molecule?
The GI50 was 18.3 µM.

And the GI50 (NCI/ADR-RES (Breast))?
The GI50 was 28.7 µM.

And the GI50 (OVCAR-3 (Ovarian))?
Its GI50 is 46.3 µM.

And the GI50 (RPMI-8226 (Leukemia))?
The GI50 was 46.8 µM.

What about the GI50 (SF-539 (CNS)) of the same molecule?
Its GI50 is 33.7 µM.

What about the GI50 (SK-MEL-5 (Melanoma)) of the same molecule?
The GI50 was 23.3 µM.

And the GI50 (SW-620 (Colon))?
Its GI50 is 26.9 µM.

And the GI50 (TK-10 (Renal))?
The GI50 was 31.4 µM.

What about the GI50 (U251 (CNS)) of the same molecule?
Its GI50 is 19.8 µM.

And the GI50 (UACC-257 (Melanoma))?
The GI50 was 15.9 µM.

And the GI50 (UACC-62 (Melanoma))?
Its GI50 is 22.5 µM.

What about the GI50 (UO-31 (Renal)) of the same molecule?
Its GI50 is 45.2 µM.
